Measured values taken from patent US9216968B2, “Heterocyclic derivative and pharmaceutical drug” (NIPPON SHINYAKU CO., LTD., priority 2011, dated 2015).
pIC50: −log10 of the molar value. Structures can show the parent of a compound that is named as a salt.

Tests used:
human mPGES-1 = human mPGES-1 (Homo sapiens (Human), UniProt O14684); experiment: mPGES-1 inhibiting activity (microsome fractions, PGE2 by HTRF); assay type: biochemical; conditions: microsomes from CHO-K1 cells transfected with human mPGES-1; PGH2 1 μM, 4° C., 60 seconds; read-out: mPGES-1 Inhibition IC50
Experimental: mPGES-1 microsome fractions were prepared from CHO-K1 cells transiently transfected with plasmid encoding the human mPGES-1cDNA. Microsomes were diluted with potassium phosphate buffer containing reduced glutathione (pH7.4), and DMSO containing test compound or DMSO alone was added (such that DMSO final concentration would be 1% in each) and incubated at 4° C. for 20 minutes. Then, the enzymatic reactions were initiated by the addition of PGH2 substrate (final concentration 1 μM) and incubated at 4° C. for 60 seconds. The reaction was terminated by the addition of a citrate solution (final citrate concentration 50 mM) containing ferric chloride (final concentration 1 mg/mL). PGE2 production in the enzyme reaction aliquot was measured using HTRF kit (Cisbio International, catalogue #62P2APEC). The solution free of test compound was used as positive control, and the solution free of test compound and microsome sample was used as negative control. 100% activity was defined as PGE2 production in the positive control minus PGE2 production in negative control. IC50 value was calculated by standard method.

A549 cells = experiment: Inhibition of PGE2 production in A549 cell (IL-1β stimulated); assay type: cell-based, human; conditions: Homo sapiens, A549, 24 h, IL-1β 5 ng/well, PGE2 in culture medium
Experimental: Human A549 cells were seeded onto a 96-well plate at 2×10^4 cells/100 μL per well and allowed to incubate overnight. After removing the culture medium and washing with phosphate buffered saline, the culture medium was replaced by RPMI culture medium with 3% FBS containing a DMSO solution containing test compound or DMSO alone (such that DMSO final concentration would be […] in each). After incubation for 60 minutes, IL-1β (5 ng/well) was added and incubated at 37° C. for 24 hours. Then, PGE2 in the culture medium was measured using HTRF kit (Cisbio International, catalogue #62P2APEC), and PGF2α in the culture medium was measured using EIA kit (Cayman Chemical Company, catalogue #516011). The solution free of test compound was used as positive control, and the solution free of test compound and IL-1β was used as negative control. 100% activity was defined as PGE2 and PGF2α production in the positive control minus PGE2 and PGF2α production in the negative control. IC50 value was calculated by standard method.

Sequence of human mPGES-1 (O14684 whole entry): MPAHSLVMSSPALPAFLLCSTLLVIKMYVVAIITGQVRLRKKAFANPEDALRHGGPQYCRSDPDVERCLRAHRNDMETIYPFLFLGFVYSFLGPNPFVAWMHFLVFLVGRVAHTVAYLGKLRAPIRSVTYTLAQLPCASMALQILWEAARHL

SMILES	pIC50 (human mPGES-1)	pIC50 (A549 cells)
COCc1nc2c(C(=O)Nc3ccc(C(F)(F)F)cc3)cc(NC(=O)c3ccccc3C(F)(F)F)cc2[nH]1 [Example 28, 2-(Methoxymethyl)-N-[4-(trifluoromethyl)phenyl]-6-({[2-(trifluoromethyl)phenyl]carbonyl}amino)-1H-benzimidazole-4-carboxamide hydrochloride]	8.48	6.94
COCc1nc2c(C(=O)Nc3ccc4c(c3)CCC4)cc(NC(=O)c3ccccc3C(F)(F)F)cc2[nH]1 [Example 33, N-(2,3-Dihydro-1H-inden-5-yl)-2-(methoxymethyl)-6-({[2-(trifluoromethyl)phenyl]carbonyl}amino)-1H-benzimidazole-4-carboxamide hydrochloride]	8.52	7.47
COCc1nc2c(C(=O)Nc3cccc4c3CCCC4)cc(NC(=O)c3ccccc3C(F)(F)F)cc2[nH]1 [Example 34, 2-(Methoxymethyl)-N-(5,6,7,8-tetrahydronaphthalen-1-yl)-6-({[2-(trifluoromethyl)phenyl]carbonyl}amino)-1H-benzimidazole-4-carboxamide hydrochloride]	8.31	7.56
COCc1nc2c(C(=O)Nc3ccccc3OC)cc(NC(=O)c3ccccc3C(F)(F)F)cc2[nH]1 [Example 36, 2-(Methoxymethyl)-N-(2-methoxyphenyl)-6-({[2-(trifluoromethyl)phenyl]carbonyl}amino)-1H-benzimidazole-4-carboxamide]	6.83	6.63
COCc1nc2c(C(=O)Nc3ccc(OC)cc3)cc(NC(=O)c3ccccc3C(F)(F)F)cc2[nH]1 [Example 37, 2-(Methoxymethyl)-N-(4-methoxyphenyl)-6-({[2-(trifluoromethyl)phenyl]carbonyl}amino)-1H-benzimidazole-4-carboxamide]	7.63	6.58
COCc1nc2c(C(=O)Nc3c(F)cccc3F)cc(NC(=O)c3ccccc3C(F)(F)F)cc2[nH]1 [Example 40, N-(2,6-Difluorophenyl)-2-(methoxymethyl)-6-({[2-(trifluoromethyl)phenyl]carbonyl}amino)-1H-benzimidazole-4-carboxamide]	6.71	6.52
COCc1nc2c(C(=O)NCc3ncccc3C(F)(F)F)cc(NC(=O)c3ccccc3C(F)(F)F)cc2[nH]1 [Example 42, 2-(Methoxymethyl)-6-({[2-(trifluoromethyl)phenyl]carbonyl}amino)-N-{[3-(trifluoromethyl)pyridin-2-yl]methyl}-1H-benzimidazole-4-carboxamide dihydrochloride]	7.55	5.73
Cc1c(Cl)cccc1NC(=O)c1cc(NC(=O)c2ccccc2C(F)(F)F)cc2[nH]c(CC(N)=O)nc12 [Example 44, 2-(2-Amino-2-oxoethyl)-N-(3-chloro-2-methylphenyl)-6-({[2-(trifluoromethyl)phenyl]carbonyl}amino)-1H-benzimidazole-4-carboxamide hydrochloride]	8.39	5.96
NC(=O)Cc1nc2c(C(=O)NCc3ccccc3C(F)(F)F)cc(NC(=O)c3ccccc3C(F)(F)F)cc2[nH]1 [Example 45, 2-(2-Amino-2-oxoethyl)-N-[2-(trifluoromethyl)benzyl]-6-({[2-(trifluoromethyl)phenyl]carbonyl}amino)-1H-benzimidazole-4-carboxamide hydrochloride]	8.31	5.68
Cc1c(Cl)cccc1NC(=O)c1cc(NC(=O)c2ccccc2C(F)(F)F)cc2c1ncn2C [Example 46, N-(3-Chloro-2-methylphenyl)-1-methyl-6-({[2-(trifluoromethyl)phenyl]carbonyl}amino)-1H-benzimidazole-4-carboxamide]	7.59	6.64
Cn1cnc2c(C(=O)NCc3ccccc3C(F)(F)F)cc(NC(=O)c3ccccc3C(F)(F)F)cc21 [Example 48, 1-Methyl-N-[2-(trifluoromethyl)benzyl]-6-({[2-(trifluoromethyl)phenyl]carbonyl}amino)-1H-benzimidazole-4-carboxamide]	7.30	6.83

More lines, now with the values ahead:

pIC50 (human mPGES-1)	pIC50 (A549 cells)	SMILES
8.46	7.07	COCc1nc2c(C(=O)Nc3ccc(C)cc3C)cc(NC(=O)c3ccccc3C(F)(F)F)cc2[nH]1 [Example 29, N-(2,4-Dimethylphenyl)-2-(methoxymethyl)-6-({[2-(trifluoromethyl)phenyl]carbonyl}amino)-1H-benzimidazole-4-carboxamide hydrochloride]
8.74	6.68	COCc1nc2c(C(=O)Nc3ccc(C)cc3Cl)cc(NC(=O)c3ccccc3C(F)(F)F)cc2[nH]1 [Example 30, N-(2-Chloro-4-methylphenyl)-2-(methoxymethyl)-6-({[2-(trifluoromethyl)phenyl]carbonyl}amino)-1H-benzimidazole-4-carboxamide hydrochloride]
8.39	7.16	COCc1nc2c(C(=O)Nc3ccc(C)c(C)c3)cc(NC(=O)c3ccccc3C(F)(F)F)cc2[nH]1 [Example 31, N-(3,4-Dimethylphenyl)-2-(methoxymethyl)-6-({[2-(trifluoromethyl)phenyl]carbonyl}amino)-1H-benzimidazole-4-carboxamide hydrochloride]
8.28	7.14	COCc1nc2c(C(=O)Nc3ccc(C)c(Cl)c3)cc(NC(=O)c3ccccc3C(F)(F)F)cc2[nH]1 [Example 32, N-(3-Chloro-4-methylphenyl)-2-(methoxymethyl)-6-({[2-(trifluoromethyl)phenyl]carbonyl}amino)-1H-benzimidazole-4-carboxamide hydrochloride]
7.69	6.69	COCc1nc2c(C(=O)Nc3ccccc3F)cc(NC(=O)c3ccccc3C(F)(F)F)cc2[nH]1 [Example 35, N-(2-Fluorophenyl)-2-(methoxymethyl)-6-({[2-(trifluoromethyl)phenyl]carbonyl}amino)-1H-benzimidazole-4-carboxamide]
8.18	7.76	COCc1nc2c(C(=O)Nc3cccc(Br)c3C)cc(NC(=O)c3ccccc3C(F)(F)F)cc2[nH]1 [Example 38, N-(3-Bromo-2-methylphenyl)-2-(methoxymethyl)-6-({[2-(trifluoromethyl)phenyl]carbonyl}amino)-1H-benzimidazole-4-carboxamide]
7.98	6.63	COCc1nc2c(C(=O)NCc3cccc(Cl)c3C)cc(NC(=O)c3ccccc3C(F)(F)F)cc2[nH]1 [Example 39, N-(3-Chloro-2-methylbenzyl)-2-(methoxymethyl)-6-({[2-(trifluoromethyl)phenyl]carbonyl}amino)-1H-benzimidazole-4-carboxamide hydrochloride]
7.28	6.84	COCc1nc2c(C(=O)Nc3cccc(C#N)c3C)cc(NC(=O)c3ccccc3C(F)(F)F)cc2[nH]1 [Example 41, N-(3-Cyano-2-methylphenyl)-2-(methoxymethyl)-6-({[2-(trifluoromethyl)phenyl]carbonyl}amino)-1H-benzimidazole-4-carboxamide]
7.15	6.36	COCc1nc2c(C(=O)Nc3c(C)cccc3Cl)cc(NC(=O)c3ccccc3C(F)(F)F)cc2[nH]1 [Example 43, N-(2-Chloro-6-methylphenyl)-2-(methoxymethyl)-6-({[2-(trifluoromethyl)phenyl]carbonyl}amino)-1H-benzimidazole-4-carboxamide hydrochloride]
